Assay results published in paper PMC4077824, “Conserved Prosegment Residues Stabilize a Late-Stage Folding Transition State of Pepsin Independently of Ground States” (PLoS ONE, 2014).
“And” between values parts separate entries of the source, which are not always exact repeats. Identical values can stand only once. “Also recorded” adds a separate entry of the source. Where no end group is shown, it is not given here.

Tests used:
refolded pepsin (Rp) [1] = biological target: T1, refolded pepsin (Rp) (Sus scrofa, UniProt P00791); assay: PS binding to Rp (Trp-fluorescence); design: species or system porcine; settings: for Kd: 0.6-1.2 µM Rp, 20 mM acetic acid/NaOH pH 5.3 without added NaCl, ≥10 min, Trp-fluorescence ex 295 nm, em 315 nm, mean ± SD from non-linear curve fitting, 3-5 measurements, read-out: K d (PS-Rp dissociation constant); for Kd / ΔΔGPS-Rp (change in PS-Rp binding energy upon mutation): 20°C; for ΔΔGPS-Rp (change in PS-Rp binding energy upon mutation): from K d, pH 5.3, relative to WT, ± SD by propagation of errors
T1 construct: Only the R13 and K36 side-chains of the PS form hydrogen bonds with the mature pepsin domain; purchased Sigma (St. Louis, MO, USA)
Protocol: The change in intrinsic tryptophan fluorescence of pepsin was used to measure the binding of PS to Rp and to determine the dissociation constant, K d. Rp solutions were diluted to between 0.6 and 1.2 µM in 20 mM acetic acid/NaOH buffer, pH 5.3, and mixed with various amounts of PS. After incubating the samples at 20°C for ≥10 minutes, the intrinsic tryptophan fluorescence was measured using a PTI spectrofluorophotometer (Photon Technology International, Inc., Birmingham NJ, USA), with excitation at 295 nm and emission measured at 315 nm. The change in fluorescence, ΔF i, at each PS concentration, [PS], was normalized relative to the maximum change, ΔF max, and fit according to [drawing 1] (1) where [Rp] is the total concentration of pepsin.
PS binding to Rp was measured in buffer without added 100 mM NaCl in order to obtain more accurate measurements of K d, owing to a larger change in signal in the absence of salt. Additionally, without added 100 mM NaCl it was possible to isolate the PS-Rp binding step from the catalyzed folding step thereby improving the determination of K d.
(§1) The change in stability of the folding transition state upon mutation was calculated using [drawing 3] (3) where k f, wt and k f, mut are the PS-catalyzed folding rate constants of the wild-type and mutant PS peptides. The change in equilibrium stability of PS-Np relative to PS-Rp upon mutation of the PS (ΔΔGPS(Np-Rp)) was determined as the difference between the changes in binding energies, using [drawing 4] (4) and [drawing 5] (5)
(§2) Here, ΔΔGbind refers to either ΔΔGPS-Rp, determined from K d values, or ΔΔGPS-Np, determined from K i values. The Φ-value for each mutant corresponds to eq 3 divided by eq 5. Additional details are included in the supporting information section (Text S1).

native pepsin (Np) = biological target: T2, native pepsin (Np) (Sus scrofa, UniProt P00791); assay: PS binding to Np (competitive inhibition of KPAEFF(NO2)AL hydrolysis); format: biochemical, porcine; settings: for Ki: 10 nM Np, 20 mM acetic acid/NaOH pH 5.3, 100 mM NaCl, 5 min incubation, substrate KPAEFF(NO2)AL 0.1 mM, absorbance 300 nm, competitive model, mean ± SD from non-linear curve fitting, 3-5 measurements, read-out: K i (PS-Np inhibition constant); for Ki / ΔΔGPS-Np (change in PS-Np binding energy upon mutation): 20°C; for ΔΔGPS-Np (change in PS-Np binding energy upon mutation): from K i, pH 5.3, relative to WT, ± SD by propagation of errors; for effect on affinity for Np / PS-Np stability (in words): pH 5.3, 20°C, PS inhibition of Np, compared with PSwt
T2 construct: Only the R13 and K36 side-chains of the PS form hydrogen bonds with the mature pepsin domain; purchased Sigma (St. Louis, MO, USA)
Protocol: PS binding to Np was determined by using the PS as a competitive inhibitor and measuring the inhibition constant, K i. Hydrolysis of the KPAEFF(NO2)AL substrate was measured by following the decrease in absorbance at 300 nm using a Biochrom Ultrospec 3100pro UV-Vis spectrophotometer (Biochrom Ltd., Cambridge, England) in 20 mM acetic acid/NaOH buffer, pH 5.3, containing 100 mM NaCl. Np samples were diluted to 10 nM and incubated with PS for 5 min at 20°C and assayed for activity. The reaction rates were normalized to the activity in the absence of PS and the data fit using the competitive inhibitor form of the Michaelis-Menten equation [drawing 2] (2) where v0 is the initial reaction rate, V max is the maximum reaction rate, [S] is the substrate concentration (fixed at 0.1 mM), [I] is the inhibitor concentration, and K M is the Michaelis constant.
as §1, §2

refolded pepsin (Rp) [2] = biological target: T1, refolded pepsin (Rp); assay: PS-catalyzed folding of Rp to Np (recovery of Np activity); format: biochemical, porcine; settings: for k f (PS-catalyzed folding rate constant): 1 µM Rp, 30 µM PS, pH 5.3 (20 mM acetic acid/NaOH, 100 mM NaCl), Np activity assayed at pH 1.2, 25°C with KPAEFF(NO2)AL, monoexponential fit, mean ± SD from non-linear curve fitting, 3-5 measurements; for k f (PS-catalyzed folding rate constant) / ΔΔG^‡ (change in folding activation energy upon mutation): 15°C; for ΔΔG^‡ (change in folding activation energy upon mutation): from k f, pH 5.3, relative to WT, ± SD by propagation of errors; for effect on rate of PS-catalyzed folding (in words): pH 5.3, 15°C, compared with PSwt
Protocol: PS-catalyzed folding of Rp to Np
PS-catalyzed folding was carried out by combining 1 µM Rp and 30 µM PS, in a volume of 100 µl, at pH 5.3 (20 mM acetic acid/NaOH with 100 mM NaCl) and 15°C. Aliquots were taken at several time intervals, diluted 20-fold in 50 mM phosphoric acid buffer, pH 1.2, incubated for 5 min at 25°C and assayed for Np activity using the KPAEFF(NO2)AL substrate. The recovery of Np activity with time, t, was fit with a monoexponential function (y = a – bexp(–k f t)) to obtain the PS-catalyzed folding rate constant, k f. Under these conditions, PS binding to Rp reached equilibrium within the dead-time of mixing (<8 sec), as judged by Trp-fluorescence.
as §1
Temperature dependence of PS-catalyzed folding
PS-catalyzed folding could be measured only up to 15 °C for PSwt, as the reaction was too fast at higher temperatures. […] Given the linear temperature dependence it could be reasonably assumed that changes in activation energies (mutant – wild-type) would be unchanged from 15 °C to 20 °C, and so could be compared directly with changes in binding energies (wild-type – mutant) that were determined at 20 °C.

[3] = tested on: pepsin (PS-Rp, PS-TS, PS-Np complexes); assay: Φ-value analysis from PS-catalyzed folding and binding constants; design: species or system porcine; settings: ± SD by propagation of errors; for Φ: ratio ΔΔG^‡/ΔΔGPS(Np-Rp); for ΔΔGPS(Np-Rp) (change in equilibrium stability of PS-Np relative to PS-Rp): ΔΔGPS-Np minus ΔΔGPS-Rp
Protocol: Calculation of Φ-values from PS-catalyzed folding and binding constants
as §1, §2
As outlined below, ∆Gbind values are used to calculate ∆∆GPS(Np-Rp), which is the change in the equilibrium free energy difference between PS-Np and PS-Rp upon mutation of the PS (for a diagram of the folding reaction, see Fig S1)
ΔΔGbind can refer to either ∆∆G^PS-Np(wt-mut) or ∆∆G^PS-Rp(wt-mut). Also, we can write ∆Gbind in terms of its components
where ∆GPS, ∆Gpepsin and ∆Gsolvent refer to the change in free energy of the PS, pepsin and the solvent upon PS binding to pepsin, respectively. Combining equations S1 and S2 gives
The contribution of each component to ∆∆Gbind will depend on the particular mutation (e.g., nature of substitution, location within folded structure, solvent accessibility). This is the general case for protein engineering analysis, in which the effects of mutations on changes in equilibrium and activation energies are the result of many individual interaction energy terms, including solvent terms, as previously explained in detail [Fersht AR, Matouschek A, Serrano L (1992) The folding of an enzyme I. Theory of protein engineering analysis of stability and pathway of protein folding. J Mol Biol 224: 771‒782]. Most importantly, there is no requirement to separate ΔΔGbind into its components in order to proceed with analysis as we are interested in the overall change in equilibrium stability of the PS-pepsin complex (∆∆GPS(Np-Rp))
This bimolecular approach to Φ-value analysis of protein folding is qualitatively identical to Φ-value analysis as it was originally applied to the study of enzyme catalysis. As outlined previously [Fersht AR], changes in the free energy of enzyme (E) binding to substrate (S) or product (P) are used to determine the change in free energy difference between E-P and E-S upon mutation, ∆∆G^EP-ES(wt-mut), where
As these are at the scale of global energy terms, equations S4 and S5 are equivalent and PS-catalyzed folding can be treated similarly as enzyme catalysis, in which the PS is the foldase and the denatured and natively folded protein are the substrate and product, respectively. However, protein folding reactions are more complicated to interpret at the level of individual interaction energy terms, which are more numerous [Fersht AR].
Changes in the binding energies between PS-Rp and PS-Np upon PS mutation can then be used to determine Φ-values with the following considerations:
1. Free PS is unstructured (see Fig S6), so Ala mutations are expected to have a negligible effect on the stability and conformation of free PS.
2. Changes in binding and folding upon mutation can be localized to the loss of interactions in the immediate vicinity of the truncation mutation (i.e., larger residue mutated to Ala), and not due to gross conformational changes of the PS or changes in the binding/folding mechanism (consider as strong evidence that all of the mutant PS’s readily catalyze folding to the native, active form).
3. Changes in PS-Rp and PS-Np binding energies upon mutation (∆∆G^PS-Np(wt-mut) and ∆∆G^PS-Rp(wt-mut)) are measured directly, while the change in the PS-TS binding energy (∆∆G^PS-TS(wt-mut)) is the sum of ∆∆G^PS-Rp(wt-mut) and ∆∆G^‡(wt-mut).
4. Φ-values are calculated using […]

pepsin = settings: native state relative to an intermediate state; ref [7]; cited from earlier work
From the text: General thermodynamic and kinetic features of protein folding are known, such as that the natively folded conformation of a protein is thermodynamically stabilized and that there is a relationship between topology and folding rate, which holds for both two-state and multi-state folding proteins, [3]. However, zymogen-derived proteins which require a prosegment (PS) domain to catalyze folding, such as the serine peptidases αLP [4], SGPB [5], and subtilisin [6], and the aspartic peptidase pepsin [7], deviate from the common thermodynamic and kinetic trends in protein foldin ... || Pepsin, which is derived from its zymogen pepsinogen, folds to a thermodynamically stable yet non-native form (termed refolded pepsin, Rp) upon removal from denaturing conditions. […] In the case of pepsin, Rp was characterized by a ΔG unf of 5.8 kcal/mol, a 10% increase in unordered secondary structure and identical tertiary structure to Np (both yield R g ∼20 Å).

[4] = pH 5.3, 20°C, compared with PSwt

T2 sequence (P00791 60-385): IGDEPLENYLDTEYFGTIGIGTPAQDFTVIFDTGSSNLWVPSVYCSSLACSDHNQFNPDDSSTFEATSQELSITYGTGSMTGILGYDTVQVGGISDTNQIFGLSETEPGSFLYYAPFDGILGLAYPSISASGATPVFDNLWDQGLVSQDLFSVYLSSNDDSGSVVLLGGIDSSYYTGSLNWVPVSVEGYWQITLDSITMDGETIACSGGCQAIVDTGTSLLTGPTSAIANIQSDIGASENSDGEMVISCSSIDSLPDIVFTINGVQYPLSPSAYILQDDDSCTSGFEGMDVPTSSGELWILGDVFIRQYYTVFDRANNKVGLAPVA
T1 sequence (P00791 60-385): as above

Row | Substance | Kd (refolded pepsin (Rp) [1]) | ΔΔGPS-Rp (change in PS-Rp binding energy upon mutation) (refolded pepsin (Rp) [1]) | Ki (native pepsin (Np)) | ΔΔGPS-Np (change in PS-Np binding energy upon mutation) (native pepsin (Np)) | k f (PS-catalyzed folding rate constant) (refolded pepsin (Rp) [2]) | ΔΔG^‡ (change in folding activation energy upon mutation) (refolded pepsin (Rp) [2]) | Φ [3] | ΔΔGPS(Np-Rp) (change in equilibrium stability of PS-Np relative to PS-Rp) [3] | reduction in binding affinity for Rp (refolded pepsin (Rp) [1]; [4]) | effect on rate of PS-catalyzed folding (in words) (refolded pepsin (Rp) [2]) | effect on affinity for Rp / PS-Rp stability (in words) (refolded pepsin (Rp) [1]; [4]) | effect on affinity for Np / PS-Np stability (in words) (native pepsin (Np)) | ΔG N-I (pepsin)
1 | LVKVPLVRKKSLAQNLIKNGKLKDFLKTHKHNPASKYFPEAAAL [R13A] | 1960 ± 290 nM | 1.08 ± 0.10 kcal/mol | 382 ± 37.2 nM | 1.03 ± 0.12 kcal/mol | 0.24 ± 0.02 min⁻¹ | 1.02 ± 0.15 kcal/mol | – | – | 7 fold | – | destabilized both the PS-Np and PS-Rp complexes | largest reduction in affinities for Np; also recorded: destabilized both the PS-Np and PS-Rp complexes | –
2 | LVKVPLVRKKSLRQNLIKNGKLKDFLKTHKHNPASAYFPEAAAL [K36A] | 720 ± 140 nM | 0.50 ± 0.13 kcal/mol | 113 ± 20.3 nM | 0.33 ± 0.15 kcal/mol | 0.28 ± 0.03 min⁻¹ | 0.94 ± 0.15 kcal/mol | – | – | – | – | nearly equally destabilizing to PS-Rp and PS-Np | nearly equally destabilizing to PS-Rp and PS-Np | –
3 | pepsin: Porcine pepsin A (EC 3.4.23.1); native pepsin (Np) | – | – | – | – | – | – | – | – | – | – | – | – | -0.1 kcal/mol

Further substances by falling Kd (refolded pepsin (Rp) [1]), results first:

Row | Kd (refolded pepsin (Rp) [1]) | ΔΔGPS-Rp (change in PS-Rp binding energy upon mutation) (refolded pepsin (Rp) [1]) | Ki (native pepsin (Np)) | ΔΔGPS-Np (change in PS-Np binding energy upon mutation) (native pepsin (Np)) | k f (PS-catalyzed folding rate constant) (refolded pepsin (Rp) [2]) | ΔΔG^‡ (change in folding activation energy upon mutation) (refolded pepsin (Rp) [2]) | Φ [3] | ΔΔGPS(Np-Rp) (change in equilibrium stability of PS-Np relative to PS-Rp) [3] | reduction in binding affinity for Rp (refolded pepsin (Rp) [1]; [4]) | Substance | effect on rate of PS-catalyzed folding (in words) (refolded pepsin (Rp) [2]) | effect on affinity for Rp / PS-Rp stability (in words) (refolded pepsin (Rp) [1]; [4]) | effect on affinity for Np / PS-Np stability (in words) (native pepsin (Np)) | ΔG N-I (pepsin)
4 | 680 ± 70 nM | 0.47 ± 0.08 kcal/mol | 270 ± 31.5 nM | 0.83 ± 0.12 kcal/mol | 0.18 ± 0.02 min⁻¹ | 1.18 ± 0.15 kcal/mol | 3.2±1.4 | 0.36 ± 0.15 kcal/mol | – | LVKVPLVRKKALRQNLIKNGKLKDFLKTHKHNPASKYFPEAAAL [S11A] | a burst-phase in the folding kinetics was noticeable | – | – | –
5 | 640 ± 90 nM | 0.43 ± 0.10 kcal/mol | 193 ± 38.8 nM | 0.64 ± 0.16 kcal/mol | 0.13 ± 0.01 min⁻¹ | 1.36 ± 0.15 kcal/mol | – | – | – | LVKVPAVRKKSLRQNLIKNGKLKDFLKTHKHNPASKYFPEAAAL [L6A] | slowest folding rate | – | – | –
6 | 250 ± 30 nM | -0.12 ± 0.08 kcal/mol | 230 ± 29.1 nM | 0.74 ± 0.13 kcal/mol | 0.26 ± 0.04 min⁻¹ | 0.96 ± 0.17 kcal/mol | 1.1 and 1.1±0.3 | 0.86 ± 0.15 kcal/mol | – | LVKVPLVRKKSLRQNLIKNGKLKDALKTHKHNPASKYFPEAAAL [F25A] | – | negligible effect on PS-Rp binding | – | –
